Laboratory results taken from US8198311B2, “Modulators of glucocorticoid receptor, AP-1, and/or NF-κB activity and use thereof” (Bristol-Myers Squibb Company, priority 2006, dated 2012).
Where two headings read alike, the source gives them in different places.

Tests used:
[1] = test system: AP-1 induced transcriptional activity; assay: Cellular Transrepressional Assay (AP-1 luciferase reporter in A549 cells, PMA-activated); type: cell-based; conditions: pAP-1-Luc, 10 ng/ml PMA, read-out: AP-1 (EC50, nM) (Cellular Transrepression Assay)
In short: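 A549 cells stably carrying a 7×AP-1-luciferase reporter, stimulated with 10 ng/ml PMA with or without compound (0.1 nM-40 μM) for 7 h. Luciferase luminescence read 10 min after reagent addition; repression is percentage decrease of PMA-alone signal, EC50 by curve fitting.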

[2] = target: T1, human full-length glucocorticoid receptor (Homo sapiens, UniProt P04150); assay: Glucocorticoid Receptor Binding Assay (II), fluorescence polarization competitor kit (Fluormone GS1); conditions: cell lysate with recombinant human full-length GR
T1 construct: recombinantly expressed human full-length glucocorticoid receptor; purchased PanVera Co., Madison, Wis; P2816
T1 sequence (P04150 1-777): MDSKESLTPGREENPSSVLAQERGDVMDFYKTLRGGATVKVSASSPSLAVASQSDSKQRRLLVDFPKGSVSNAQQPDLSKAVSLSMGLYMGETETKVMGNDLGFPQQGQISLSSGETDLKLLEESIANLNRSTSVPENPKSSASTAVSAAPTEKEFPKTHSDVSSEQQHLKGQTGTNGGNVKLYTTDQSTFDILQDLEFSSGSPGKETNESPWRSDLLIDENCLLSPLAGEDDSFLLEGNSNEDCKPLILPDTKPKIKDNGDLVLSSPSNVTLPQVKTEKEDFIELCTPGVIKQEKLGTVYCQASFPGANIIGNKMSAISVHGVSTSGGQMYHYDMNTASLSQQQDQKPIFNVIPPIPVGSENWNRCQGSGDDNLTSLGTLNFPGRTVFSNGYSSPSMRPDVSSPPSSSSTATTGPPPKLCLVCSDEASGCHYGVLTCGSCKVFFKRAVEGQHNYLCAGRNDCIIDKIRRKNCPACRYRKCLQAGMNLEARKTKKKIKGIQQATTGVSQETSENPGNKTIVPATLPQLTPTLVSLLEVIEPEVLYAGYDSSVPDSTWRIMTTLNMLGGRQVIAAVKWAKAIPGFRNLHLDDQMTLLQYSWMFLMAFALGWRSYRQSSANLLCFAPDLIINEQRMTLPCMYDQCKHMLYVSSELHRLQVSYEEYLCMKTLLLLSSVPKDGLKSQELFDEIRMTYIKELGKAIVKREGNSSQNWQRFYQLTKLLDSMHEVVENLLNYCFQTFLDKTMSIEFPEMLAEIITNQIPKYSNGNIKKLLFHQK
Procedure: In order to measure the binding of compounds on the glucocorticoid receptor a commercially available kit was used (Glucocorticoid receptor competitor assay kit, PanVera Co., Madison, Wis., P2816). Briefly, a cell lysate containing recombinantly expressed human full-length glucocorticoid receptor was mixed with a fluorescently labeled glucocorticoid (1 nM Fluormone GS1) in the presence or absence of test compound. After one hour at room temperature, the fluorescence polarization (FP) of the samples were measured. […] Test molecules were analyzed in the concentration range from 2.4 nM to 40 microMolar.

| SMILES | EC50 ([1]; 7 hours) | Ki [2] | EC50 ([1]; Homo sapiens, A549, 7 h) |
| --- | --- | --- | --- |
| CC(C)CC(c1ccc2c(cnn2-c2ccc(F)cc2)c1)C(C)(C)CNS(=O)(=O)CC(F)(F)F (single isomer, unassigned) [Example 57B, 2,2,2-trifluoro-N-(3-(1-(4-fluorophenyl)-1H-indazol-5-yl)-2,2,5-trimethylhexyl)-ethanesulfonamide] | > 10000 nM | 15 nM |  |
| CC(C)(CNC(=O)CC(F)(F)F)[C@H](c1ccccc1)c1ccc2c(cnn2-c2ccc(F)cc2)c1 [(R)-17, (R)-3,3,3-trifluoro-N-(3-(1-(4-fluorophenyl)-1H-indazol-5-yl)-2,2-dimethyl-3-phenylpropyl)-propanamide] |  | 12 nM | 99 nM |
| CC(C)S(=O)(=O)NCC(C)(C)[C@@H](c1ccccc1)c1ccc2c(cnn2-c2ccc(F)cc2)c1 [Example 7, (S)-N-(3-(1-(4-fluorophenyl)-1H-indazol-5-yl)-2,2-dimethyl-3-phenylpropyl)propane-2-sulfonamide] |  | 6.1 nM | 139 nM |
| CC(C)(CNC(=O)C1(C(F)(F)F)CC1)[C@@H](c1ccccc1)c1ccc2c(cnn2-c2ccc(F)cc2)c1 [Example 10, (S)-N-(3-(1-(4-fluorophenyl)-1H-indazol-5-yl)-2,2-dimethyl-3-phenylpropyl)-1-(trifluoromethyl)cyclopropanecarboxamide] |  | 19 nM | 143 nM |
| CC(C)CC(c1ccc2c(cnn2-c2ccc(F)cc2)c1)C(C)(C)CNC(=O)CC(F)(F)F (stereo not drawn) [Example 59A, 3,3,3-trifluoro-N-(3-(1-(4-fluorophenyl)-1H-indazol-5-yl)-2,2,5-trimethylhexyl)propanamide] |  | 6.9 nM | 57 nM |
| CC(C)(C)CC(=O)NCC(C)(C)[C@@H](c1ccccc1)c1ccc2c(cnn2-c2ccc(F)cc2)c1 [Example 1, (S)-N-(3-(1-(4-fluorophenyl)-1H-indazol-5-yl)-2,2-dimethyl-3-phenylpropyl)-3,3-dimethylbutanamide] |  | 8.3 nM | 1280 nM |
| CC(C)(C(=O)c1ccccc1)C(c1ccccc1)c1ccc2c(cnn2-c2ccc(F)cc2)c1 (stereo not drawn) [Example 125] |  | 14 nM | > 10000 nM |
| CC(C)(CNC(=O)CC(F)(F)F)[C@@H](c1ccccc1)c1ccc2[nH]ncc2c1 [(S)-82, (S)-N-(3-(1H-indazol-5-yl)-2,2-dimethyl-3-phenylpropyl)-3,3,3-trifluoropropanamide] |  | 39 nM | > 10000 nM |
| CC(C)CC(c1ccc2c(cnn2-c2ccc(F)cc2)c1)C(C)(C)CNC(=O)CC(F)(F)F (single isomer, unassigned) [Example 59B, 3,3,3-trifluoro-N-(3-(1-(4-fluorophenyl)-1H-indazol-5-yl)-2,2,5-trimethylhexyl)propanamide] |  | 9.3 nM | > 10000 nM |
| CC(C)CC(c1ccc2c(cnn2-c2ccc(F)cc2)c1)C(C)(C)CNS(=O)(=O)CC(F)(F)F (single isomer, unassigned) [Example 57A, 2,2,2-trifluoro-N-(3-(1-(4-fluorophenyl)-1H-indazol-5-yl)-2,2,5-trimethylhexyl)-ethanesulfonamide] |  | 59 nM | > 10000 nM |
| Cn1ncc2cc([C@H](c3ccccc3)C(C)(C)CNS(=O)(=O)CC(F)(F)F)ccc21 [Example 85, (S)—N-(2,2-Dimethyl-3-(1-methyl-1H-indazol-5-yl)-3-phenylpropyl)-2,2,2-trifluoroethanesulfonamide] |  | 2890 nM | > 10000 nM |
| CC(C)(C(=O)C(F)(F)F)C(c1ccccc1)c1ccc2c(cnn2-c2ccc(F)cc2)c1 (stereo not drawn) [Example 131, 1,1,1-Trifluoro-4-(1-(4-fluorophenyl)-1H-indazol-5-yl)-3,3-dimethyl-4-phenylbutan-2-one] |  | 20 nM | > 10000 nM |
| CC(C)(C(=O)C1CC1)C(c1ccccc1)c1ccc2c(cnn2-c2ccc(F)cc2)c1 (stereo not drawn) [Example 126] |  | 12 nM | > 10000 nM |
| COC(=O)C(=O)NCC(C)(C)[C@H](c1ccccc1)c1ccc2c(cnn2-c2ccc(F)cc2)c1 [Example 23, (R)-methyl 2-(3-(1-(4-fluorophenyl)-1H-indazol-5-yl)-2,2-dimethyl-3-phenylpropylamino)-2-oxoacetate] |  | 62 nM | 5960 nM |
| CC(C)(C(c1ccccc1)c1ccc2c(cnn2-c2ccc(F)cc2)c1)C(O)(c1cccs1)C(F)(F)F (stereo not drawn) [Example 130, 1,1,1-Trifluoro-4-(1-(4-fluorophenyl)-1H-indazol-5-yl)-3,3-dimethyl-4-phenyl-2-(thiophen-2-yl)butan-2-ol] |  | 252 nM | > 10000 nM |
| CC(C)(C(O)c1cccs1)C(c1ccccc1)c1ccc2c(cnn2-c2ccc(F)cc2)c1 (stereo not drawn) [Example 123, 3-(1-(4-fluorophenyl)-1H-indazol-5-yl)-2,2-dimethyl-3-phenyl-1-(thiophen-2-yl)propan-1-ol] |  | 71 nM | > 10000 nM |
| CCCS(=O)(=O)NCC(C)(C)[C@@H](c1ccccc1)c1ccc2c(cnn2-c2ccc(F)cc2)c1 [Example 13, (S)-N-(3-(1-(4-fluorophenyl)-1H-indazol-5-yl)-2,2-dimethyl-3-phenylpropyl)propane-1-sulfonamide] |  | 19 nM | 181 nM |
| CC(C)(C(O)c1ccccc1)C(c1ccccc1)c1ccc2c(cnn2-c2ccc(F)cc2)c1 (stereo not drawn) [Example 121, 3-(1-(4-fluorophenyl)-1H-indazol-5-yl)-2,2-dimethyl-1,3-diphenylprop an-1-ol] |  | 69 nM | 3850 nM |
| CC(C)n1ncc2cc([C@H](c3ccccc3)C(C)(C)CNC(=O)CC(F)(F)F)ccc21 [Example 86, (S)—N-(2,2-Dimethyl-3-(1-isopropyl-1H-indazol-5-yl)-3-phenylpropyl)-3,3,3-trifluoropropanamide] |  | 13 nM | > 10000 nM |
| CC(C)CC(c1ccc2c(cnn2-c2ccc(F)cc2)c1)C(C)(C)CNC(=O)C(F)(F)F (stereo not drawn) [Example 25, 2,2,2-trifluoro-N-(3-(1-(4-fluorophenyl)-1H-indazol-5-yl)-2,2,5-trimethylhexyl)acetamide] |  | 8.2 nM | > 10000 nM |
| CC(C)(CNC(=O)C(F)(F)F)C(c1ccccc1)c1ccc2c(cnn2C2CCCCCC2)c1 (stereo not drawn) [Example 114, N-(3-(1-Cycloheptyl-1H-indazol-5-yl)-2,2-dimethyl-3-phenylpropyl)-2,2,2-trifluoroacetamide] |  | 33 nM | > 10000 nM |
| CC(=O)NCC(C)(C)[C@H](c1ccccc1)c1ccc2c(cnn2-c2ccc(F)cc2)c1 [Example 22, (R)-N-(3-(1-(4-fluorophenyl)-1H-indazol-5-yl)-2,2-dimethyl-3-phenylpropyl)acetamide] |  | 17 nM | 679 nM |
| CC(C)CC(c1ccc2c(cnn2-c2ccc(F)cc2)c1)C(C)(C)CNC(=O)NCC(F)(F)F (single isomer, unassigned) [Example 58B, 1-(3-(1-(4-fluorophenyl)-1H-indazol-5-yl)-2,2,5-trimethylhexyl)-3-(2,2,2-trifluoroethyl)urea] | 106 nM | 8.8 nM |  |
| O=S(=O)(CC(F)(F)F)NCCC(c1ccccc1)c1ccc2c(cnn2-c2ccc(F)cc2)c1 (stereo not drawn) [Example 110, 2,2,2-Trifluoro-N-(3-(1-(4-fluorophenyl)-1H-indazol-5-yl)-3-phenylpropyl)ethanesulfonamide] |  | 21 nM | > 10000 nM |
| CC(C)(C(O)Cc1ccccc1)C(c1ccccc1)c1ccc2c(cnn2-c2ccc(F)cc2)c1 (stereo not drawn) [Example 124, 4-(1-(4-fluorophenyl)-1H-indazol-5-yl)-3,3-dimethyl-1,4-diphenylbutan-2-ol] |  | 75 nM | > 10000 nM |
| CC(C)(CNC(=O)C(F)(F)F)[C@H](c1ccccc1)c1ccc2c(cnn2-c2ccc(F)cc2)c1 [(R)-16, (R)-2,2,2-trifluoro-N-(3-(1-(4-fluorophenyl)-1H-indazol-5-yl)-2,2-dimethyl-3-phenylpropyl)acetamide] |  | 7.4 nM | 61 nM |
| O=C(CC(F)(F)F)NCC1CC1(c1ccccc1)c1ccc2c(cnn2-c2ccc(F)cc2)c1 (stereo not drawn) [Example 88, 3,3,3-Trifluoro-N-((2-(1-(4-fluorophenyl)-1H-indazol-5-yl)-2-phenylcyclopropyl)methyl)propanamide] |  | 86 nM | > 10000 nM |
